Two compounds from PMC11443518, “Undescribed Amaryllidaceae Alkaloids from Zephyranthes citrina and Their Cytotoxicity” (Journal of Natural Products, 2024) can be followed below.

Broadly, the IC50 is the concentration that gives 50% inhibition.

Test [1] deals with MOLT-4 (acute lymphoblastic leukemia). The test is described as follows: WST-1 cell proliferation assay, cytotoxicity screening. The class given is cell-based, human. The settings on record: Homo sapiens, MOLT-4, 48 h, read-out: growth percent (GP) MOLT-4. The method, boiled down: (§1)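 Seed cells at optimal density and let them settle overnight. Add alkaloid to 10 μM final and culture 48 h. Perform WST-1 assay, measure absorbance, and express growth as % of nontreated control; average three independent experiments.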
In general terms: Tetrazolium dyes change colour on reduction, which living cells bring about.

In test [2] the test system is MCF-7 (breast adenocarcinoma). The test is described as above. It is filed as cell-based, human. Conditions: Homo sapiens, MCF7, 48 h, read-out: growth percent (GP) MCF-7. In outline:
as §1

Test [3] concerns nine human tumor and one nontumor cell lines. The test can be described thus: Cytotoxicity screening across the whole panel of cell lines. It is filed as cell-based. The settings on record: Homo sapiens, 48 h, read-out: GP value across the tested cell lines.
In the next test the test system is SAOS-2 (osteosarcoma). The test is described as follows: WST-1 cell proliferation assay, cytotoxicity screening. It is filed as cell-based. Conditions: Homo sapiens, SAOS-2, 48 h, read-out: growth percent (GP) SAOS-2. In outline: as §1
The test system of test [4] is HT-29 (colorectal adenocarcinoma). The description is as above. Conditions: Homo sapiens, HT-29, 48 h, read-out: growth percent (GP) HT-29. The class given is cell-based. In outline:
as §1

The test system of the next test is A549 (lung carcinoma). The description is as above. It is filed as cell-based. The settings on record: Homo sapiens, A549, 48 h, read-out: growth percent (GP) A549. In outline:
as §1

In test [5] the test system is Jurkat (acute T-cell leukemia). The description is as above. It is filed as cell-based. The settings on record: Homo sapiens, 48 h, read-out: growth percent (GP) Jurkat. In outline: as §1
Test [6] has as its system PANC-1 (pancreas epithelioid carcinoma). The description is as above. The settings on record: Homo sapiens, PANC-1, 48 h, read-out: growth percent (GP) PANC-1. It is filed as cell-based. In outline:
as §1

For test [7], the system named is HeLa (cervix adenocarcinoma). The test is described as above. The class given is cell-based. The settings on record: Homo sapiens, 48 h, read-out: growth percent (GP) HeLa. In outline: as §1
Test [8] concerns A2780 (ovarian carcinoma). The description is as above. It is filed as cell-based. Conditions: Homo sapiens, A2780, 48 h, read-out: growth percent (GP) A2780. In outline:
as §1

Test [9] deals with MRC-5 (nontumor lung fibroblasts). The description is as above. It is filed as cell-based. The settings on record: Homo sapiens, MRC5, 48 h, read-out: growth percent (GP) MRC-5. In outline: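 Single-concentration screen: alkaloids at 10 μM final over 48 h, with doxorubicin 1 μM as positive control. Growth is reported relative to untreated cells set at 100%.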
Another test deals with T1, hBChE (Homo sapiens, UniProt P06276).
T1 construct: purchased University Hradec Kralove, Department of Chemistry, Faculty of Science
The test can be described thus: biochemical. It is filed as biochemical. The settings on record: recombinant BChE, Ellman, 37 °C. As for the experimental part: (§2) The hAChE and hBChE activities were determined using a modified method of Ellman, as described by Hrabinova and co-workers against recombinant AChE and recombinant BChE (purchased from University Hradec Kralove, Department of Chemistry, Faculty of Science).[43] Other used chemicals were phosphate buffer solution (PBS, pH = 7.4), 5,5′-dithio-bis(2-nitrobenzoic) acid (Ellman’s reagent, DTNB), acetylthiocholine iodide (ATChI), butyrylthiocholine iodide (BTChI), and dimethyl sulfoxide (DMSO) (all chemicals were purchased from Sigma-Aldrich, Prague, Czech Republic).
(§3) Briefly, 8.3 μL of the corresponding enzyme, 283 μL of 5 mM DTNB, and 8.3 μL of the sample dilution in DMSO in different concentrations were added to the microplate. These solutions were incubated for 5 min at 37 °C. Then, 33.3 μL of 10 mM substrate (ATChI or BTChI) was added to initiate the reaction, and the whole reaction mixture was incubated for 2 min at 37 °C. […] This difference after 1 min was used to calculate the percentage of inhibitory potential of the given derivative. Each measurement was repeated three times for every concentration of the compound. 8.3 μL DMSO was used as a blank. The % inhibition was calculated according to the following formula: [drawing 3] where ΔABl is the increase of absorbance of the blank sample and ΔASa is the increase of absorbance of the measured sample.
In general terms: In Ellman's method for cholinesterases, released thiocholine reacts with DTNB.

In another test the target is T2, hAChE (Homo sapiens, UniProt P22303).
T2 construct: purchased University Hradec Kralove, Department of Chemistry, Faculty of Science
The test is described as follows: biochemical. The class given is biochemical. Conditions: recombinant AChE, Ellman, 37 °C. As for the experimental part: as §2, §3

Where “and” joins values, the source holds several entries; their conditions need not be identical. Equal values may be shown once.

T2 sequence (P22303 32-614): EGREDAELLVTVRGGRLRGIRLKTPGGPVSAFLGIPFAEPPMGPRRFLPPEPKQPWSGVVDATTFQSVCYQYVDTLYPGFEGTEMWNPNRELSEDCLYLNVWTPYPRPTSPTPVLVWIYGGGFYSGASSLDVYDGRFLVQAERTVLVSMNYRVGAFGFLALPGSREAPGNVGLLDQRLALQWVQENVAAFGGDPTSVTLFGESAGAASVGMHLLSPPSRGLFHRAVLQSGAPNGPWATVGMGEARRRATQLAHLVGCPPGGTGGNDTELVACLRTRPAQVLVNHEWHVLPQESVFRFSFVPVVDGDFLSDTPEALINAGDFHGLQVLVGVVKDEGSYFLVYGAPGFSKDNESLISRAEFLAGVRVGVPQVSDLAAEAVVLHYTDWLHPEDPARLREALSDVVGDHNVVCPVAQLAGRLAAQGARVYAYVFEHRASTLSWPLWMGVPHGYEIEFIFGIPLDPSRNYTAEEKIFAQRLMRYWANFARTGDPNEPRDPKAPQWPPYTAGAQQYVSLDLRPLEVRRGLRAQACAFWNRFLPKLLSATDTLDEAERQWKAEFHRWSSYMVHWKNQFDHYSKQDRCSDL
T1 sequence (P06276 29-602): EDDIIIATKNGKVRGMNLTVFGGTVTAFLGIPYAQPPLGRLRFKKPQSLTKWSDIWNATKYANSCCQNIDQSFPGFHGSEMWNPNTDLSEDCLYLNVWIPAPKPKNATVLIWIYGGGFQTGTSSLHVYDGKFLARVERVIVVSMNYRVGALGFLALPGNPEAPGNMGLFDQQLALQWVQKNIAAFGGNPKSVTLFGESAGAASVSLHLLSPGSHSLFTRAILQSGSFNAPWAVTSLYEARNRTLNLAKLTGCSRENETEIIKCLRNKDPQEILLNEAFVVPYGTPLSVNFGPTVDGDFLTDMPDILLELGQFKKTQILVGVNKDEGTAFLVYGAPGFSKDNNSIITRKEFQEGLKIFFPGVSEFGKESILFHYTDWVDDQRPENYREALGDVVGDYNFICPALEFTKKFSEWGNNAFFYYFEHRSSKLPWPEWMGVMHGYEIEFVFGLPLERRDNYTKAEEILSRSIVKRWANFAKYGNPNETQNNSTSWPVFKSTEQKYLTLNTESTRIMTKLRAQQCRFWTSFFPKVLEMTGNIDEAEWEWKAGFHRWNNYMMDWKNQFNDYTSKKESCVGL

On to `COc1ccc2c3c1O[C@H]1C[C@@H](O)CC[C@@]31CCNC2` [Compound 7, norlycoramine], for which the activity at 10 µM is 99% in test [1]; 97% in test [2]; over 50% in [3]; 97% in the test with SAOS-2 (osteosarcoma); 100% in test [4]; 103% in the test with A549 (lung carcinoma). Besides, the activity at 10 µM in test [5] is 103%; in [6], 103%; in test [7], 98%; in [8], 97%; in test [9], 98%. Also, the half-maximal inhibitory concentration (IC50) on hBChE is over 100 µM; at hAChE, > 100 µM and 155 µM.

Turning to `COc1cc2c(c(O)c1OC)[C@@]13CC[C@H](O)C[C@@H]1N(CC3)C2O` (some centres unmarked) [Compound 8, zephyranine C], the activity at 10 µM is 98% in [1]; 112% in [2]; over 50% in test [3]; 111% in the test with SAOS-2 (osteosarcoma); 121% in [4]; 117% with A549 (lung carcinoma). Moreover, the activity at 10 µM in test [5] amounted to 109%; in test [6], 110%; in [7] it was 117%; in test [8], 105%; in test [9], 100%. Moreover, the IC50 at hBChE and at hAChE was over 100 µM in each case.
